Reference: patent US20140228274A1, “Liquid Detergent Composition” (priority 2011, published 2014)

Experiments:
[1] = biological target: T1, Savinase 16L (subtilisin) (Lederbergia lenta, UniProt P29600); assay: Storage stability in liquid detergent: residual protease activity (hydrolysis of N,N-dimethylcasein at 40° C., pH 8.3); assay type: biochemical; conditions: for Residual protease activity, 4 weeks at 35° C. (% of initial activity): inhibitor dosage 'yes'
T1 construct: purchased Novozymes Savinase 16L
T1 sequence (P29600 1-269): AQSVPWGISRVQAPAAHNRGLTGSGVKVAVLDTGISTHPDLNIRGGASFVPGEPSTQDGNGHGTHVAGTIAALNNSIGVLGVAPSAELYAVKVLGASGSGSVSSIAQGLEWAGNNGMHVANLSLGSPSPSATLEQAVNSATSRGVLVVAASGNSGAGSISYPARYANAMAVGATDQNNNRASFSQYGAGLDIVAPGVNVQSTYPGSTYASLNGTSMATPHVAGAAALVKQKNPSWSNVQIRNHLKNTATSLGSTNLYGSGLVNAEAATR
Protocol: (§1) General experimental details: Detergents containing Savinase 16L and either X—B^1—B^0—H or X—B^1—NH—CHR—CHOH—SO3Na; or Savinase 16L; are placed in closed glasses at −18° C.; 35° C. and 40° C. Residual activities of protease and lipase are measured after different times using standard analytical methods (protease by hydrolysis of N,N-dimethylcasein at 40° C., pH 8.3 and lipase by hydrolysis of pNp-valerate at 40° C., pH 7.7). The inhibitor and protease may also be added individually to the detergent.
(§2) As an example of liquid detergents with a stabilized subtilisin formulation, the compositions described in Table 1 were made.
(§3) As another example of detergents with a stabilized subtilisin formulation, the compositions described in Table 3 were made.

[2] = tested on: Lipex 100L (lipase); assay: Storage stability in liquid detergent: residual lipase activity (hydrolysis of pNp-valerate at 40° C., pH 7.7); assay type: biochemical
Protocol: as §1, §2, §3

[3] = Detergent B, 2% Na formate alone, no inhibitor
[4] = Detergent A, no Na formate, inhibitor 21 ppm (peptide aldehydes) or 26 ppm (hydrosulfite adduct) in detergent
[5] = Detergent B, 2% Na formate, inhibitor 21 ppm (peptide aldehydes) or 26 ppm (hydrosulfite adduct) in detergent

## O=C[O-].[Na+] [Na formate, sodium formate]
[1]; [3]
  Residual protease activity, 2 weeks at 40° C. (% of initial activity): 1%
[2]; [3]
  Residual lipase activity, 2 weeks at 35° C. (% of initial activity): 3%

## Cbz-GAY-H
[1]; [4]
  Residual protease activity, 2 weeks at 40° C. (% of initial activity): 5%
[1]; [5]
  Residual protease activity, 2 weeks at 40° C. (% of initial activity): 71%
[1]; Detergent E (12% LAS, pH 8.4), no Na formate
  Residual protease activity, 4 weeks at 35° C. (% of initial activity): 43%
[1]; Detergent F (12% LAS, pH 8.4), 2% Na formate
  Residual protease activity, 4 weeks at 35° C. (% of initial activity): 88%
[2]; [4]
  Residual lipase activity, 2 weeks at 35° C. (% of initial activity): 16%
[2]; [5]
  Residual lipase activity, 2 weeks at 35° C. (% of initial activity): 32%
[2]; Detergent E (12% LAS, pH 8.4), no Na formate, inhibitor dosage 'yes'
  Residual lipase activity, 2 weeks at 35° C. (% of initial activity): 14%
[2]; Detergent F (12% LAS, pH 8.4), 2% Na formate, inhibitor dosage 'yes'
  Residual lipase activity, 2 weeks at 35° C. (% of initial activity): 27%

## Cbz-VAL-H
[1]; [4]
  Residual protease activity, 2 weeks at 40° C. (% of initial activity): 2%
[1]; [5]
  Residual protease activity, 2 weeks at 40° C. (% of initial activity): 49%
[2]; [4]
  Residual lipase activity, 2 weeks at 35° C. (% of initial activity): 13%
[2]; [5]
  Residual lipase activity, 2 weeks at 35° C. (% of initial activity): 30%
